Experimental findings from patent US20110033393A1, “Hydrazone Compounds and Their Use” (priority 2009, published 2011) are described below.

The assay relates to isolated rat primary islets. Briefly: Insulin release from isolated primary rat islets. The format is cell-based. On the procedure:
Isolation of Rat Islets: Islets were isolated from 226-250 g male Sprague Dawley rats from Taconic. The animals were initially anesthetized with CO2 gas and euthanized by cervical dislocation. The pancreatic duct was injected with 15 to 30 ml of Collagenase P (Roche Diagnostics catalog #1 249 002) at 0.6 mg/ml in Hanks' Balanced Salt Solution (HBSS) (Gibco Catalog #14025-076) supplemented with BSA (Sigma, catalog #A 7409) to a final concentration of 0.1%. The pancreas was excised and placed into a 20 ml scintillation vial, incubated in a water bath at 37° C. for 16 to 18 minutes and then shaken briskly for at least 60 seconds. The digested tissue was poured into a 50 ml conical tube (1 per tube) containing cold Hank's Buffer supplemented with BSA (as above) and washed 7-10 times. […]
Measurement of Insulin Release: Insulin release measurements were carried out in Krebs-Ringer bicarbonate buffer (118.4 mmol/liter NaCl, 4.69 mmol/liter KCl, 1.2 mmol/liter MgSO4, 1.18 mmol/liter KH2PO4, 2.4 mmol/liter CaCl2, and 20 mmol/liter NaHCO3 (equilibrated with 95% O2 and 5% CO2, pH 7.4) supplemented with BSA to a final concentration of 0.1%). […] Insulin release in the supernatant was assessed using a commercially available ELISA kit (Mercodia-Cat. #10-1124-10) according to the manufacturer's protocol. The data were expressed as pg of insulin per number of cells. […]

Regarding `Cc1cc(/C=N/NC(=O)C2CC2c2ccccc2)cc2cccnc12` (racemic) [Example 10, trans-N′-((8-Methylquinolin-6-yl)methylene)-2-phenylcyclopropanecarbohydrazide], the insulin secretion result (3 mM glucose, compound up to 10 μM) is on record as “insulin secretion is not observed” and the insulin secretion entry (12 mM glucose, compared to the DMSO control) was “significant dose-dependent increase in insulin secretion”.
